Assay [1] has as its system VZV strain Ellen. The assay is described as follows: VZV Antiviral (ELISA) Assay. The following applies: human foreskin fibroblast cells; for IC50 / inhibition at 10 µg/mL: Human alphaherpesvirus 3, Fibroblast; for IC50: read-out: IC50 Ug/ml VZV; for inhibition at 10 µg/mL: read-out: % inhibition 10 ug/ml VZV, 10 ug/ml. The format is cell-based, varicella-zoster virus. The method, then:
For the generation of stock VZV to be used in the assay, VZV strain Ellen (ATCC #VR-1367) is used to infect human foreskin fibroblast (HFF) cells at low multiplicity (less than 0.1) and incubated overnight at 37° C. in 5% CO2. After the overnight incubation, the mixture of uninfected and VZV-infected HFF infected cells are then harvested and added to each well of 96-well plates (3.5×10^4 cells in 100 μl DMEM supplemented with 2% FBS) which contain test compound or the reference standard drug control (in 100 μl DMEM supplemented with 2% FBS per well). These cells are incubated for three days at 37° C. in 5% CO2, then fixed for ELISA assay. The primary antibody is murine anti-VZV glycoprotein II monoclonal antibody (Applied Biosystems, Inc. #13-145-100) and the secondary antibody is goat anti-mouse IgG linked to β-galactosidase. Thus the extent of viral replication is determined by assessing β-galactosidase activity by quantifying the generation of the 4-methyl umbelliferone fluorescent cleavage product after addition of the methyl umbelliferyl-β-D-galactoside (Sigma #M1633) substrate on a microfluorimeter (365 nm for excitation and 450 nm for emission). Antiviral activity (IC50) of the test compound is determined by comparing the flourescence obtained in absence of compound to that obtained in the presence of compound.

Assay [2] concerns HSV-1. The assay is described as follows: HSV Antiviral (ELISA) Assay. The format is cell-based, herpes simplex virus type 1. The following applies: Vero cells, HSV-1; for IC50: Human alphaherpesvirus 1, Vero, read-out: IC50 Ug/ml HSV. As for the experimental part:
Vero cells (ATCC #CCL-81) are plated on 96-well tissue culture plates at 3.5×10^4 cells per 100 μl tissue culture DMEM (Dulbecco's modified Eagle media) supplemented with 2% fetal bovine serum (FBS) in each well. After overnight incubation @ 37° C. (in 5% CO2) and 30 minutes prior to infection with HSV-1 (multiplicity of infection equal to 0.006), cells are either untreated, or treated with test compound (multiple concentrations) or reference standard drug control. After approximately 24 hours post-infection incubation @ 37° C. (in 5% CO2), cells are fixed for ELISA assay. The primary antibody is murine anti-HSV glycoprotein D monoclonal primary antibody and the secondary antibody is goat anti-mouse IgG linked to β-galactosidase. Thus the extent of viral replication is determined by assessing β-galactosidase activity by quantifying the generation of the 4-methyl umbelliferone fluorescent cleavage product after addition of the methyl umbelliferyl-β-D-galactoside (Sigma #M1633) substrate on a microfluorimeter (365 nm for excitation and 450 nm for emission). Antiviral activity (IC50) of the test compound is determined by comparing the flourescence obtained in absence of compound to that obtained in the presence of compound.
(In general: In an ELISA, binding on a coated surface is turned into a signal by an enzyme label.)

For assay [3], the system named is HCMV wild-type. In words: HCMV yield assay. The class given is cell-based, human cytomegalovirus. Particulars: human foreskin fibroblasts; for IC50: Human betaherpesvirus 5, Fibroblast, read-out: IC50 Ug/ml HCMV. The method, then: Yield assay. Monolayer cultures of human foreskin fibroblasts are infected with HCMV wild-type, typically at a multiplicity of infection equal to 0.2, in the presence of inhibitor compound (varying concentrations). At three days post-infection, total virus produced in these cultures (i.e. virus yield) is assessed by harvesting and titering the virus in 12-well plates of cultured human foreskin fibroblasts (done in the absence of inhibitor). Plaques are quantified at 2 weeks post-infection. An inhibitor of HCMV is identified by the reduction in titer of virus yield in the presence, compared to the titer in the absence of compound. In this assay, the relative anti-HCMV activity of an inhibitor is typically determined by calculating the IC50 or IC90 value, that is, the amount of compound required to reduce the virus yield by 50% or 90%, respectively. Table I describes IC50 data for compounds tested against HCMV.

In brackets after ≈: the same amount, converted by molar mass. A value given as a limit tells only on which side of the number the result lay.

Consider `CCN(CC)c1ccc(NC(=S)Nc2ccc(NC(C)=O)cc2)cc1Cl` [Example 202, N-{4-[3-(3-Chloro-4-diethylamino-phenyl)-thioureido]-phenyl}-acetamide], for which the results for the IC50 in assay [1], in assay [2] and in assay [3] were over 10 µg/mL, 3 µg/mL (≈ 7.67 µM) and over 10 µg/mL, respectively. Further, in assay [1], the inhibition at 10 µg/mL was 18%.

Take `CC(=O)Nc1ccc(NC(=S)Nc2ccc(N(C)C3CCCCC3)c(Cl)c2)cc1` [Example 203]: the “% inhibition 10 ug/ml VZV” value in assay [1] (10 ug/ml) is listed as 22%. Moreover, in assay [1], the “IC50 Ug/ml VZV” value was over 10 Ug/ml. In addition, the “IC50 Ug/ml HSV” value in assay [2] is given as over 10 Ug/ml. For the same molecule, the “IC50 Ug/ml HCMV” value in assay [3] was found to be 2 Ug/ml.

As for `CC(=O)Nc1ccc(NC(=S)Nc2ccc(N3CCOCC3)c(Cl)c2)cc1` [Example 205, N-{4-[3-(3-Chloro-4-morpholin-4-yl-phenyl)-thioureido]-phenyl}-acetamide], the IC50 was over 10 µg/mL in assay [1], over 50 µg/mL in assay [2] and 20 µg/mL (≈ 49.4 µM) in assay [3]. Besides, the inhibition at 10 µg/mL in assay [1] was found to be 30%.

As for `COc1cc(OCCCC#N)c(Cl)cc1NC(=S)Nc1ccc(NC(C)=O)cc1` [Example 211, N-(4-{3-[5-Chloro-2-methoxy-4-(4-nitrilo-butoxy)-phenyl]-thioureido}-phenyl)-acetamide], the IC50 is over 10 µg/mL in assay [1], 30 µg/mL (≈ 69.3 µM) in assay [2] and over 10 µg/mL in assay [3]. Also, the inhibition at 10 µg/mL in assay [1] turned out to be 35%.

Consider `COc1cc(OCC#N)c(Cl)cc1NC(=S)Nc1ccc(NC(C)=O)cc1` [Example 212, N-(4-{3-[5-Chloro-2-methoxy-4-(2-nitrilo-ethoxy)-phenyl]-thioureido}-phenyl)-acetamide], for which the IC50 in assay [1] is over 10 µg/mL; in assay [2], over 50 µg/mL; in assay [3] it was 20 µg/mL (≈ 49.4 µM). The inhibition at 10 µg/mL in assay [1] amounted to 23%.

For `COc1cc(OCC#N)c(NC(=S)Nc2ccc(NC(C)=O)cc2)cc1Cl` [Example 213, N-(4-{3-[5-Chloro-4-methoxy-2-(2-nitrilo-ethoxy)-phenyl]-thioureido}-phenyl)-acetamide], the values for the IC50 in assay [1], in assay [2] and in assay [3] were over 10 µg/mL, 30 µg/mL (≈ 74.1 µM) and 15 µg/mL (≈ 37 µM), respectively. In addition, the inhibition at 10 µg/mL in assay [1] stood at 20%.

Take `COc1cc(OCCO)c(NC(=S)Nc2ccc(NC(C)=O)cc2)cc1Cl` [Example 214, N-(4-{3-[5-Chloro-2-(2-hydroxy-ethoxy)-4-methoxy-phenyl]-thioureido}-phenyl)-acetamide]: the IC50 is over 10 µg/mL in assay [1], 20 µg/mL (≈ 48.8 µM) in assay [2] and over 10 µg/mL in assay [3]. Also, the inhibition at 10 µg/mL in assay [1] amounted to 20%.

In the case of `COc1cc(OCCO)c(Cl)cc1NC(=S)Nc1ccc(NC(C)=O)cc1` [Example 215, N-(4-{3-[5-Chloro-4-(2-hydroxy-ethoxy)-2-methoxy-phenyl]-thioureido}-phenyl)-acetamide], the IC50 was over 10 µg/mL in assay [1], over 50 µg/mL in assay [2] and over 10 µg/mL in assay [3]. Also, the inhibition at 10 µg/mL in assay [1] amounted to 30%.

In the case of `COc1cc(OCC(=O)OC(C)(C)C)c(Cl)cc1NC(=S)Nc1ccc(NC(C)=O)cc1` [Example 216, {4-[3-(4-Acetylamino-phenyl)-thioureido]-2-chloro-5-methoxy-phenoxy}-acetic acid tert-butyl ester], the IC50 is over 10 µg/mL in assay [1], 35 µg/mL (≈ 72.9 µM) in assay [2] and over 10 µg/mL in assay [3]. For the same molecule, the inhibition at 10 µg/mL in assay [1] came out at 23%.

As for `COC(=O)COc1cc(OC)c(NC(=S)Nc2ccc(NC(C)=O)cc2)cc1Cl` [Example 217, {4-[3-(4-Acetylamino-phenyl)-thioureido]-2-chloro-5-methoxy-phenoxy}-acetic acid methyl ester], the IC50 in assay [1] is over 10 µg/mL; in assay [2] it was over 50 µg/mL; in assay [3], over 10 µg/mL. For the same molecule, the inhibition at 10 µg/mL in assay [1] is 10%.

`COc1cc(OCC(=O)OC(C)(C)C)c(NC(=S)Nc2ccc(NC(C)=O)cc2)cc1Cl` [Example 218, {2-[3-(4-Acetylamino-phenyl)-thioureido]-4-chloro-5-methoxy-phenoxy}-acetic acid tert-butyl ester]: the IC50 in assay [1] is over 10 µg/mL; in assay [2] it was 15 µg/mL (≈ 31.3 µM); in assay [3], over 10 µg/mL. In assay [1], the inhibition at 10 µg/mL is 18%.

As for `COc1cc(O)c(Cl)cc1NC(=S)Nc1ccc(NC(C)=O)cc1` [Example 223, N-{4-[3-(5-Chloro-4-hydroxy-2-methoxy-phenyl)-thioureido]-phenyl}-acetamide], the IC50 was over 10 µg/mL in assay [1], 14 µg/mL (≈ 38.3 µM) in assay [2] and over 50 µg/mL in assay [3]. Further, the inhibition at 10 µg/mL in assay [1] turned out to be 24%.

Take `COc1cc(N2CCOCC2)c(NC(=S)Nc2ccc(NC(C)=O)cc2)cc1Cl` [Example 226, N-{4-[3-(5-Chloro-4-methoxy-2-morpholin-4-yl-phenyl)-thioureido]-phenyl}-Acetamide]: the IC50 was over 10 µg/mL in assay [1], over 50 µg/mL in assay [2] and over 50 µg/mL in assay [3]. For the same molecule, the inhibition at 10 µg/mL in assay [1] turned out to be 35%.

Regarding `COc1cc(N(C)C)c(NC(=S)Nc2ccc(NC(C)=O)cc2)cc1Cl` [Example 227, N-{4-[3-(5-Chloro-2-dimethylamino-4-methoxy-phenyl)-thioureido]-phenyl}-acetamide], the IC50 in assay [1] is over 10 µg/mL; in assay [2], over 50 µg/mL; in assay [3], over 50 µg/mL. Moreover, the inhibition at 10 µg/mL in assay [1] came to 32%.

As to `COc1cc(N2CCCC2)c(NC(=S)Nc2ccc(NC(C)=O)cc2)cc1Cl` [Example 228, N-{4-[3-(5-Chloro-4-methoxy-2-pyrrolidin-1-yl-phenyl)-thioureido]-phenyl}-acetamide], the IC50 in assay [1] is over 10 µg/mL; in assay [2], 3 µg/mL (≈ 7.16 µM); in assay [3], over 10 µg/mL. Further, the inhibition at 10 µg/mL in assay [1] is 35%.

Consider `COc1cc(N2CCCCC2)c(NC(=S)Nc2ccc(NC(C)=O)cc2)cc1Cl` [Example 229, N-{4-[3-(5-Chloro-4-methoxy-2-piperidin-1-yl-phenyl)-thioureido]-phenyl}-acetamide], for which the IC50 in assay [1] is over 10 µg/mL; in assay [2] it was 15 µg/mL (≈ 34.6 µM); in assay [3], 7 µg/mL (≈ 16.2 µM). The inhibition at 10 µg/mL in assay [1] was 35%.

On to `CC(=O)Nc1ccc(NC(=S)Nc2ccc(N3CCCCC3)c(Cl)c2)cc1` [Example 239, N-{4-[3-(3-Chloro-4-piperidin-1-yl-phenyl)-thioureido]-phenyl}-acetamide], for which the IC50 is over 10 µg/mL in assay [1], 25 µg/mL (≈ 62 µM) in assay [2] and over 10 µg/mL in assay [3]. The inhibition at 10 µg/mL in assay [1] was 33%.

For `CC(=O)Nc1ccc(NC(=S)Nc2ccc(N(C)C)c(Cl)c2)cc1` [Example 240, N-{4-[3-(3-Chloro-4-dimethylamino-phenyl)-thioureido]-phenyl}-acetamide], the values for the IC50 in assay [1], in assay [2] and in assay [3] were over 10 µg/mL, over 50 µg/mL and 1.5 µg/mL (≈ 4.13 µM), respectively. Besides, in assay [1], the inhibition at 10 µg/mL came out at 5%.

For the molecule `CC(=O)Nc1ccc(NC(=S)Nc2ccc(NCc3ccccc3)c(Cl)c2)cc1` [Example 241, N-{4-[3-(4-Benzylamino-3-chloro-phenyl)-thioureido]-phenyl}-acetamide], the IC50 is over 10 µg/mL in assay [1], 10 µg/mL (≈ 23.5 µM) in assay [2] and 2 µg/mL (≈ 4.71 µM) in assay [3]. In addition, the inhibition at 10 µg/mL in assay [1] amounted to 24%.

On to `CC(=O)Nc1ccc(NC(=S)Nc2ccc(N3CCCC3)c(Cl)c2)cc1` [Example 242, N-{4-[3-(3-Chloro-4-pyrrolidin-1-yl-phenyl)-thioureido]-phenyl}-acetamide], for which the IC50 is over 10 µg/mL in assay [1], 50 µg/mL (≈ 129 µM) in assay [2] and over 10 µg/mL in assay [3]. In assay [1], the inhibition at 10 µg/mL came out at 20%.

(Values after US6335350B1, “Acetamide and substituted acetamide-containing thiourea inhibitors of herpes viruses” (American Home Products Corporation, priority 1998, dated 2002).)
